Several values for one entry are separate records, joined by “and”; a condition that tells them apart may be missing. Equal values may be shown once. Toxic doses and inconclusive results are not listed.

In this assay the test system is L1210 leukemia ip in BDF1 mice, survival T/C. Kind of assay: NCI In Vivo Anticancer Drug Screen. Data for tumor model L1210 Leukemia (intraperitoneal) in B6D2F1 (BDF1) mice. To be noted: endpoint: mean survival time, higher = longer survival. The method, boiled down:
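Value reflects the ratio of survival in compound-treated mice to survival in vehicle-treated controls, with both groups carrying the same transplanted tumor.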

The mark [1] stands for this setting: dose: 100.0 mg/kg/injection, schedule: Q01DX001 (ip), vehicle: carboxymethylcellulose (CMC).
Setting [2] is: dose: 200.0 mg/kg/injection, schedule: Q01DX001 (ip), vehicle: carboxymethylcellulose (CMC).
[3] abbreviates: dose: 400.0 mg/kg/injection, schedule: Q01DX001 (ip), vehicle: carboxymethylcellulose (CMC).
Where [4] appears, read: dose: 75.0 mg/kg/injection, schedule: Q01DX001 (ip), vehicle: carboxymethylcellulose (CMC).
Setting [5] is: dose: 100.0 mg/kg/injection, schedule: Q01DX009 (ip), vehicle: Klucel (hydroxypropylcellulose) (HPC).
The mark [6] stands for this setting: dose: 100.0 mg/kg/injection, schedule: Q04DX003 (ip), vehicle: Klucel (hydroxypropylcellulose) (HPC).
[7] abbreviates: dose: 200.0 mg/kg/injection, schedule: Q01DX009 (ip), vehicle: Klucel (hydroxypropylcellulose) (HPC).
The mark [8] stands for this setting: dose: 200.0 mg/kg/injection, schedule: Q04DX003 (ip), vehicle: Klucel (hydroxypropylcellulose) (HPC).
Where [9] appears, read: dose: 400.0 mg/kg/injection, schedule: Q01DX009 (ip), vehicle: Klucel (hydroxypropylcellulose) (HPC).
Setting [10] is: dose: 400.0 mg/kg/injection, schedule: Q04DX003 (ip), vehicle: Klucel (hydroxypropylcellulose) (HPC).
The mark [11] stands for this setting: dose: 100.0 mg/kg/injection, schedule: Q01DX009 (ip), vehicle: saline.
Setting [12] is: dose: 200.0 mg/kg/injection, schedule: Q01DX009 (ip), vehicle: saline.
[13] abbreviates: dose: 400.0 mg/kg/injection, schedule: Q01DX009 (ip), vehicle: saline.

Consider `Nc1ccn(CC(=O)c2ccc(Cl)s2)c(=O)n1`, for which the T/C reads like this: (dose: 100.0 mg/kg/injection, schedule: Q01DX009 (ip), vehicle: water) 95 % of control; (dose: 100.0 mg/kg/injection, schedule: Q04DX003 (ip), vehicle: water) 101 % of control; (dose: 200.0 mg/kg/injection, schedule: Q01DX009 (ip), vehicle: water) 101 % of control; (dose: 200.0 mg/kg/injection, schedule: Q04DX003 (ip), vehicle: water) 100 % of control; (dose: 400.0 mg/kg/injection, schedule: Q04DX003 (ip), vehicle: water) 102 % of control.

Turning to `CCN(Cc1ccccc1)c1cc(=O)[nH]c(=O)[nH]1`, the T/C was 100 % of control (dose: 48.0 mg/kg/injection, schedule: Q01DX001 (ip), vehicle: Klucel (hydroxypropylcellulose) (HPC)); 102 % of control (dose: 96.0 mg/kg/injection, schedule: Q01DX001 (ip), vehicle: Klucel (hydroxypropylcellulose) (HPC)); 97 % of control (dose: 192.0 mg/kg/injection, schedule: Q01DX001 (ip), vehicle: Klucel (hydroxypropylcellulose) (HPC)).

In the case of `COc1ccc(C(OC(=O)c2ccc([N+](=O)[O-])cc2)c2ccccc2)cc1` (stereo not given), the T/C is 88 % of control under setting [1], 91 % of control under setting [2] and 93 % of control under setting [3].

`COC(=O)c1cc2ccccc2c2ccccc12`: the T/C is 94 % of control (dose: 100.0 mg/kg/injection, schedule: Q01DX009 (ip), vehicle: saline with Tween-80); 91 % of control (dose: 200.0 mg/kg/injection, schedule: Q01DX009 (ip), vehicle: saline with Tween-80); 87 % of control (dose: 400.0 mg/kg/injection, schedule: Q01DX009 (ip), vehicle: saline with Tween-80).

`CCN(CC)CCCC(C)n1nnc2cc(Cl)ccc21` (stereo not given): the T/C by setting is: (dose: 100.0 mg/kg/injection, schedule: Q01DX001 (ip), vehicle: saline) 97 % of control; (dose: 200.0 mg/kg/injection, schedule: Q01DX001 (ip), vehicle: saline) 97 % of control.

As for `Nc1ncnc(N)c1NC(=O)C1CCCCC1`, the T/C is 101 % of control (dose: 25.0 mg/kg/injection, schedule: Q01DX001 (ip), vehicle: Klucel (hydroxypropylcellulose) (HPC)) and 101 % of control (dose: 50.0 mg/kg/injection, schedule: Q01DX001 (ip), vehicle: Klucel (hydroxypropylcellulose) (HPC)).

For `O=NN(CCCl)C(=O)Nc1cccc(O)c1`, the T/C was 123 % of control (dose: 4.5 mg/kg/injection, schedule: Q01DX009 (ip), vehicle: other); 176 % of control (dose: 7.0 mg/kg/injection, schedule: Q01DX009 (ip), vehicle: other); 155 % of control (dose: 11.0 mg/kg/injection, schedule: Q01DX009 (ip), vehicle: other); 170 % of control (dose: 17.0 mg/kg/injection, schedule: Q01DX009 (ip), vehicle: carboxymethylcellulose (CMC)); 154 % of control (dose: 17.0 mg/kg/injection, schedule: Q01DX009 (ip), vehicle: other); 210 % of control (dose: 26.0 mg/kg/injection, schedule: Q01DX009 (ip), vehicle: carboxymethylcellulose (CMC)). Besides, the T/C was 184 % of control (dose: 26.0 mg/kg/injection, schedule: Q01DX009 (ip), vehicle: other); 154 % of control (dose: 30.0 mg/kg/injection, schedule: Q01DX001 (ip), vehicle: carboxymethylcellulose (CMC)); 156 % of control (dose: 40.0 mg/kg/injection, schedule: Q01DX009 (ip), vehicle: carboxymethylcellulose (CMC)); 170 % of control (dose: 40.0 mg/kg/injection, schedule: Q01DX009 (ip), vehicle: other); 154 % of control and 168 % of control (dose: 60.0 mg/kg/injection, schedule: Q01DX001 (ip), vehicle: carboxymethylcellulose (CMC)); 121 % of control (dose: 60.0 mg/kg/injection, schedule: Q01DX009 (ip), vehicle: other). Moreover, the T/C under setting [4] is 118 % of control.

Consider `O=C(Oc1ccccc1)c1ccc(Cl)cc1`, for which the T/C under setting [5] is 98 % of control; the T/C under setting [6] is 102 % of control; the T/C under setting [7] is 95 % of control; the T/C under setting [8] was 101 % of control; the T/C under setting [9] was 98 % of control; the T/C under setting [10] was 98 % of control.

With `Cc1ccc(NC(=S)N2CCC(CCCC3CCN(C(=S)Nc4ccc(C)cc4C)CC3)CC2)c(C)c1`, the T/C (dose: 50.0 mg/kg/injection, schedule: Q01DX009 (ip), vehicle: Klucel (hydroxypropylcellulose) (HPC)) is 98 % of control; the T/C under setting [5] is 107 % of control; the T/C under setting [6] is 97 % of control; the T/C under setting [7] was 95 % of control; the T/C under setting [8] is 95 % of control.

For the compound `COc1cc(Cc2cc(OC)c(O)c(OC)c2)cc(OC)c1O`, the T/C under setting [5] was 107 % of control; the T/C under setting [6] is 92 % of control; the T/C under setting [7] is 93 % of control; the T/C under setting [8] is 97 % of control; the T/C under setting [9] was 101 % of control; the T/C under setting [10] was 95 % of control.

As to `CCOC(=O)N1CCCCC1`, the T/C is, setting by setting: (dose: 50.0 mg/kg/injection, schedule: Q01DX001 (ip), vehicle: carboxymethylcellulose (CMC)) 95 % of control; under setting [1], 95 % of control; under setting [2], 101 % of control and 93 % of control; under setting [3], 104 % of control and 90 % of control.

In the case of `O=S1(=O)CCCC1`, the T/C reads like this: under setting [11], 104 % of control; (dose: 100.0 mg/kg/injection, schedule: Q04DX003 (ip), vehicle: saline) 104 % of control; under setting [12], 98 % of control; (dose: 200.0 mg/kg/injection, schedule: Q04DX003 (ip), vehicle: saline) 100 % of control; under setting [13], 96 % of control; (dose: 400.0 mg/kg/injection, schedule: Q04DX003 (ip), vehicle: saline) 98 % of control.

As to `O=C(O)c1cccc2c1C(=O)c1cc(Cl)ccc1-2`, the T/C is, setting by setting: under setting [4], 96 % of control; (dose: 150.0 mg/kg/injection, schedule: Q01DX001 (ip), vehicle: carboxymethylcellulose (CMC)) 102 % of control.

With `O=S(=O)(O)c1ccc2c(ccc3ccccc32)c1`, the T/C (dose: 75.0 mg/kg/injection, schedule: Q01DX001 (ip), vehicle: saline) was 96 % of control.

Turning to `Cc1nn(C)c(N)c1C#N`, the T/C (dose: 25.0 mg/kg/injection, schedule: Q01DX009 (ip), vehicle: saline) was 97 % of control; the T/C (dose: 50.0 mg/kg/injection, schedule: Q01DX009 (ip), vehicle: saline) was 97 % of control; the T/C (dose: 100.0 mg/kg/injection, schedule: Q01DX001 (ip), vehicle: Klucel (hydroxypropylcellulose) (HPC)) was 107 % of control; the T/C under setting [11] is 111 % of control; the T/C (dose: 200.0 mg/kg/injection, schedule: Q01DX001 (ip), vehicle: Klucel (hydroxypropylcellulose) (HPC)) is 104 % of control; the T/C under setting [12] was 106 % of control. In addition, the T/C (dose: 400.0 mg/kg/injection, schedule: Q01DX001 (ip), vehicle: Klucel (hydroxypropylcellulose) (HPC)) was 104 % of control and the T/C under setting [13] is 100 % of control.

Consider `COc1cc(C(C)S(=O)(=O)c2ccccc2)ccc1O` (stereo not given), for which the T/C reads like this: under setting [1], 97 % of control; under setting [2], 97 % of control; under setting [3], 103 % of control.

On to `CCCCCCC/C=N\N=C(N)N`, for which the T/C is 97 % of control (dose: 15.0 mg/kg/injection, schedule: Q01DX Z (ip), vehicle: carboxymethylcellulose (CMC)); 97 % of control (dose: 30.0 mg/kg/injection, schedule: Q01DX Z (ip), vehicle: carboxymethylcellulose (CMC)); 101 % of control (dose: 60.0 mg/kg/injection, schedule: Q01DX Z (ip), vehicle: carboxymethylcellulose (CMC)).

As for `COC1OC(C)C(NC(C)=O)C(OCc2ccccc2)C1OCc1ccccc1` (stereo not given), the T/C was 95 % of control under setting [6], 95 % of control under setting [8] and 97 % of control under setting [10].

On to `OCC1OC(n2c3ccccc3c3ccccc32)C(O)C(O)C1O` (stereo not given), for which the T/C by setting is: (dose: 60.0 mg/kg/injection, schedule: Q04DX002 (ip), vehicle: DMSO) 108 % of control; (dose: 120.0 mg/kg/injection, schedule: Q04DX002 (ip), vehicle: DMSO) 102 % of control.
